Data taken from ChEMBL document CHEMBL3286394, “Synthesis and pharmacological characterization of new neuronal nicotinic acetylcholine receptor ligands derived from Sazetidine-A” (Bioorg Med Chem Lett, 2014).

Experiments:
[1] = target: Neuronal acetylcholine receptor; alpha3/beta4 (Rattus norvegicus, UniProt P04757+P12392); test: Displacement of [3H]epibatadine from rat alpha3beta4 nAChR expressed in HEK293 cells by scintillation counting analysis; type: cell-based
[2] = target: Neuronal acetylcholine receptor; alpha4/beta2 (Rattus norvegicus, UniProt P09483+P12390); test: Displacement of [3H]epibatadine from rat alpha4beta2 nAChR expressed in HEK293 cells by scintillation counting analysis; type: cell-based
[3] = target: Neuronal acetylcholine receptor subunit alpha-7 (Rattus norvegicus, UniProt Q05941); test: Displacement of [3H]epibatadine from rat alpha7 nAChR expressed in HEK293 cells by scintillation counting analysis; type: cell-based
[4] = Displacement of [3H]epibatadine from rat forebrain nAChR expressed in HEK293 cells by scintillation counting analysis; type: cell-based
Rattus norvegicus = species: Rattus norvegicus; test: Selectivity ratio of Ki for rat alpha3beta4 nAChR to Ki for rat alpha4beta2 nAChR

Sequence of Neuronal acetylcholine receptor; alpha3/beta4 (P04757 whole entry): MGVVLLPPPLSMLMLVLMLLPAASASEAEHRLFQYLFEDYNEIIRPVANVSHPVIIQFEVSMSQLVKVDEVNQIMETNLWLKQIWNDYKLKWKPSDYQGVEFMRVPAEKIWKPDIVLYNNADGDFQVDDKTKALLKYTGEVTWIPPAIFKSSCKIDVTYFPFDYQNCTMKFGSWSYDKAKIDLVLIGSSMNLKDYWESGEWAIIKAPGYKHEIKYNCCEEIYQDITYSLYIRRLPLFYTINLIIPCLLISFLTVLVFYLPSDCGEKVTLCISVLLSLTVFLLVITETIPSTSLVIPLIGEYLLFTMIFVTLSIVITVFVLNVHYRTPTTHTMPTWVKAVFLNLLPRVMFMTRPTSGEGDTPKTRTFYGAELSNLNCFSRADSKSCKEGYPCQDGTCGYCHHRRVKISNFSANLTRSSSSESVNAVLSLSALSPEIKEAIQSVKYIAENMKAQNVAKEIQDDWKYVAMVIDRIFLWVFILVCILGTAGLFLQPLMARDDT
Sequence of Neuronal acetylcholine receptor; alpha3/beta4 (P12392 whole entry): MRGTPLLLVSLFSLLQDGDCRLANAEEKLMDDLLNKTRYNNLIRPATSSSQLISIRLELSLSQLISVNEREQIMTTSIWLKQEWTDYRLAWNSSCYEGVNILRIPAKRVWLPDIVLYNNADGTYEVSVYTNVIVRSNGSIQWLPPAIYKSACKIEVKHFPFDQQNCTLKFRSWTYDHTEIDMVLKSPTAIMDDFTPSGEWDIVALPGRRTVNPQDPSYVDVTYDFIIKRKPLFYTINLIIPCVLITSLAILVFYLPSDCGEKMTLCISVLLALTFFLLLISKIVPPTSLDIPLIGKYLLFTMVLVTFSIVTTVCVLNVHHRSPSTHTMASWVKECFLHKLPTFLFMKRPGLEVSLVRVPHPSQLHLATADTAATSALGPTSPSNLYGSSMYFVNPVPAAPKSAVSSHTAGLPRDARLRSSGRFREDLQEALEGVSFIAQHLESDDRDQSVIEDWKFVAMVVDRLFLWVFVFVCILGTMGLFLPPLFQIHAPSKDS
Sequence of Neuronal acetylcholine receptor subunit alpha-7 (Q05941 whole entry): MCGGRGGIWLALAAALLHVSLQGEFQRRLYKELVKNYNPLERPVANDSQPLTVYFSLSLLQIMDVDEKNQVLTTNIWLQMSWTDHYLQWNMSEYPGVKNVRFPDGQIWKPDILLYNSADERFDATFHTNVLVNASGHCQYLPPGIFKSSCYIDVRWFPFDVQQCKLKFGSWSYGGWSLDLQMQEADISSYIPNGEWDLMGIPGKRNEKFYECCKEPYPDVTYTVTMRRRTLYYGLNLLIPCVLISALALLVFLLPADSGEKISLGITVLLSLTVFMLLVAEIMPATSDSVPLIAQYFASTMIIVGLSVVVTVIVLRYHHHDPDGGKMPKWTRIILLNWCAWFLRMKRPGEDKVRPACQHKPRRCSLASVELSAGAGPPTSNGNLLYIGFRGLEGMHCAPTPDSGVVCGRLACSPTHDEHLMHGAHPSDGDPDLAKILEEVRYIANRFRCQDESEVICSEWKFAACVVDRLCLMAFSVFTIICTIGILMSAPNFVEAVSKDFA
Sequence of Neuronal acetylcholine receptor; alpha4/beta2 (P09483 whole entry): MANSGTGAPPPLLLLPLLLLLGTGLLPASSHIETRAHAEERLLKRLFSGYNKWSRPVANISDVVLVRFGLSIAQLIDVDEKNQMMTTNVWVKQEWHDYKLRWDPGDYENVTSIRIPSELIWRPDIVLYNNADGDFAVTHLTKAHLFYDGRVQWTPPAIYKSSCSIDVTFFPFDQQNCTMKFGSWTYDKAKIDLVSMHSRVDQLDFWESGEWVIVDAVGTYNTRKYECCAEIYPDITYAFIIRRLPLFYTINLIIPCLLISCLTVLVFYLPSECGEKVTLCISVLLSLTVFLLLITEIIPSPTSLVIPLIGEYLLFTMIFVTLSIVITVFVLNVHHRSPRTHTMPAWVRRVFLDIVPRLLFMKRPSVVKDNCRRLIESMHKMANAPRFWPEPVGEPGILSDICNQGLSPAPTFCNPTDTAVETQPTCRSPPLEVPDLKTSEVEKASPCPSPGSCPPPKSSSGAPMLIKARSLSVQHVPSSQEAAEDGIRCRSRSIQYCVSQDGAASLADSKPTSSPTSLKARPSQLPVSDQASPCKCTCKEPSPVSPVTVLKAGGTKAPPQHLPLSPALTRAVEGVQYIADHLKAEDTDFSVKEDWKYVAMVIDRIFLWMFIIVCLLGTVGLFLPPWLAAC
Sequence of Neuronal acetylcholine receptor; alpha4/beta2 (P12390 whole entry): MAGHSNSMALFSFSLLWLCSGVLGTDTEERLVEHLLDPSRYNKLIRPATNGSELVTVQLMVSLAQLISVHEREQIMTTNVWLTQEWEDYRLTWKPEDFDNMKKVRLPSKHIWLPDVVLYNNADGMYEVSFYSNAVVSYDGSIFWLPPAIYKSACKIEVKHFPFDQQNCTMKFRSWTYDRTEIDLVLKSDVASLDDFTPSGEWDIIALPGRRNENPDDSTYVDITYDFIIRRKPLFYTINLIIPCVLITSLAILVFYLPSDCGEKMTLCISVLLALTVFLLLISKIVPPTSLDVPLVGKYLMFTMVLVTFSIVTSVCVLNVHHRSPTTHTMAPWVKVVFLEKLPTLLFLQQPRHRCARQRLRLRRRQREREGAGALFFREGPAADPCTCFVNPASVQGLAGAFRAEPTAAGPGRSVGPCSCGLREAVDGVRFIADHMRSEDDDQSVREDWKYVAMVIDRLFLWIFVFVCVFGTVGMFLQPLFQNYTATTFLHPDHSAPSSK

Row | SMILES | Ki [1] | Ki [2] | Ki [3] | Ki [4] | Ratio Ki (Rattus norvegicus)
1 | CCCCC#Cc1cncc(OC[C@@H]2CCCN2)c1 | 18 µM | 1.2 nM | 35 µM | 5.8 nM | 15000
2 | c1ncc(-c2nnn3c2CCCC3)cc1OC[C@@H]1CCN1 | 64 µM | 10 nM | 51 µM | 48 nM | 6200
3 | CCCCC#Cc1cncc(OC[C@H]2CCCN2)c1 | 12 µM | 0.49 nM | 9.1 µM | 7.7 nM | 24000
4 | CCCCC#Cc1cncc(OC[C@H]2CCN2)c1 | 5.2 µM | 0.5 nM | 13 µM | 0.92 nM | 10000
5 | OCCCCc1cn(-c2cncc(OC[C@@H]3CCN3)c2)nn1 | 77 µM | 1.3 nM | 100 µM | 8 nM | 59000
6 | [N-]=[N+]=NCCCCC#Cc1cncc(OC[C@@H]2CCN2)c1 | 3.4 µM | 0.086 nM | 2.7 µM | 0.36 nM | 40000
7 | CCCCC#Cc1cncc(OC[C@@H]2CCN2)c1 | 1.7 µM | 0.1 nM | 1.9 µM | 0.29 nM | 17000
